# Results as given in paper PMC11062899, “De novo development of small cyclic peptides that are orally bioavailable” (Nature Chemical Biology, 2023).
# “And” between values parts separate entries of the source, which are not always exact repeats. Equal values may be shown once. Read-outs that look alike come from different tables or passages of the source.
# How the values were obtained:
# [1] = Peptide stability in simulated intestinal fluid (SIF); format: in vitro ADME, porcine; conditions: simulated gi fluid; 8 h, 37 °C, pH 6.8; read-out: Proteolytic stability: SIF (8 h) % remaining
# In short: (§1)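 Peptide from a 1 mM DMSO stock was added to fluid pre-warmed at 37 °C. SGF was pH 1.2 NaCl with porcine pepsin (0.32 g per 100 ml), and SIF was pH 6.8 potassium phosphate with porcine pancreatin (1 g per 100 ml). Supernatant peptide was quantified by LC–MS, with residual expressed as T1/T0.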
# porcine pancreatin = test: as above; format: in vitro ADME; conditions: after 8 h vs 0 h (TIC)
# In short: as §1
# rat α-thrombin = target: T1, rat α-thrombin (Rattus norvegicus, UniProt P18292); test: Protease inhibition, Ki for rat α-thrombin (fluorogenic substrate Z-Gly-Gly-Arg-AMC); format: biochemical; conditions: rat alpha thrombin; for Slope normalized to DMSO (proteolytic substrate cleavage over time): replicates R1-R3
# T1 construct: rat α-thrombin (Molecular Innovations) were used at final concentrations of 2 nM and 3 nM; purchased Molecular Innovations
# In short: (§2)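 Ki derived through Cheng–Prusoff from IC50s (four-parameter logistic fit) against activity of peptide-free controls. Product fluorescence was read every 3 min over 30 min at 25 °C, substrate Z-Gly-Gly-Arg-AMC at 50 μM. Enzyme was 2 nM human or 3 nM rat α-thrombin, pH 7.4 buffer.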
# [2] = Metabolic stability in rat liver microsomes (RLMs); conditions: for microsomal CLint / half-life: rat
# [3] = Passive artificial membrane permeability (PAMPA)
# human α-thrombin = human α-thrombin (Homo sapiens, UniProt P00734); test: Protease inhibition, Ki for human α-thrombin (fluorogenic substrate Z-Gly-Gly-Arg-AMC); format: biochemical; conditions: human alpha thrombin; for Slope normalized to DMSO (proteolytic substrate cleavage over time): replicates R1-R3
# In short: as §2
structure (smiles),measurement,setting,value
O=C1C[C@H]2CCCN2C(=O)[C@H](Cc2ccccc2)NC(=O)[C@@H](NC(=O)c2ccc(Cl)s2)CSCc2cccc(n2)CSCCN1 [compound 31],remaining at 8 h,[1],76 ± 8%
same,"SIF stability, Residual peptide Average",porcine pancreatin; average of R1-R3,75.90
same,"SIF stability, Residual peptide",porcine pancreatin; single replicates R1-R3,75.23 and 67.97 and 84.49
same,Ki,"rat α-thrombin; average of R1-R3, read-out: Ki Average, rat alpha thrombin inhibition",183 nM
same,Slope normalized to DMSO (proteolytic substrate cleavage over time),rat α-thrombin; peptide 1.02E-03 uM,99.2 and 100.9 and 93.8
same,Slope normalized to DMSO (proteolytic substrate cleavage over time),rat α-thrombin; peptide 1.04E+00 uM,29.7 and 30.1 and 28.1
same,Slope normalized to DMSO (proteolytic substrate cleavage over time),rat α-thrombin; peptide 1.27E-04 uM,101.2 and 100.0 and 97.1
same,Slope normalized to DMSO (proteolytic substrate cleavage over time),rat α-thrombin; peptide 1.30E-01 uM,74.9 and 71.7 and 69.9
same,Slope normalized to DMSO (proteolytic substrate cleavage over time),rat α-thrombin; peptide 1.59E-05 uM,103.1 and 102.5 and 98.1
same,Slope normalized to DMSO (proteolytic substrate cleavage over time),rat α-thrombin; peptide 1.63E-02 uM,92.3 and 92.5 and 97.9
same,Slope normalized to DMSO (proteolytic substrate cleavage over time),rat α-thrombin; peptide 1.67E+01 uM,5.4 and 8.1 and 5.8
same,Slope normalized to DMSO (proteolytic substrate cleavage over time),rat α-thrombin; peptide 2.03E-03 uM,98.5 and 94.4 and 93.1
same,Slope normalized to DMSO (proteolytic substrate cleavage over time),rat α-thrombin; peptide 2.08E+00 uM,20.1 and 19.4 and 16.8
same,Slope normalized to DMSO (proteolytic substrate cleavage over time),rat α-thrombin; peptide 2.54E-04 uM,119.5 and 99.6 and 95.9
same,Slope normalized to DMSO (proteolytic substrate cleavage over time),rat α-thrombin; peptide 2.60E-01 uM,60.8 and 61.1 and 58.9
same,Slope normalized to DMSO (proteolytic substrate cleavage over time),rat α-thrombin; peptide 3.18E-05 uM,100.8 (2×) and 96.5
same,Slope normalized to DMSO (proteolytic substrate cleavage over time),rat α-thrombin; peptide 3.26E-02 uM,86.1 and 87.0 and 83.0
same,Slope normalized to DMSO (proteolytic substrate cleavage over time),rat α-thrombin; peptide 3.33E+01 uM,5.3 (2×) and 6.5
same,Slope normalized to DMSO (proteolytic substrate cleavage over time),rat α-thrombin; peptide 4.07E-03 uM,93.9 and 97.5 and 93.1
same,Slope normalized to DMSO (proteolytic substrate cleavage over time),rat α-thrombin; peptide 4.17E+00 uM,12.5 and 13.2 and 11.9
same,Slope normalized to DMSO (proteolytic substrate cleavage over time),rat α-thrombin; peptide 5.09E-04 uM,99.8 and 101.3 and 106.4
same,Slope normalized to DMSO (proteolytic substrate cleavage over time),rat α-thrombin; peptide 5.21E-01 uM,39.6 and 40.5 and 38.3
same,Slope normalized to DMSO (proteolytic substrate cleavage over time),rat α-thrombin; peptide 6.36E-05 uM,100.0 and 99.8 and 96.8
same,Slope normalized to DMSO (proteolytic substrate cleavage over time),rat α-thrombin; peptide 6.51E-02 uM,90.0 and 82.1 and 78.1
same,Slope normalized to DMSO (proteolytic substrate cleavage over time),rat α-thrombin; peptide 6.67E+01 uM,6.2 and 7.3 and 4.1
same,Slope normalized to DMSO (proteolytic substrate cleavage over time),rat α-thrombin; peptide 7.95E-06 uM,105.8 and 104.8 and 99.9
same,Slope normalized to DMSO (proteolytic substrate cleavage over time),rat α-thrombin; peptide 8.14E-03 uM,96.3 and 93.4 and 96.8
same,Slope normalized to DMSO (proteolytic substrate cleavage over time),rat α-thrombin; peptide 8.33E+00 uM,9.2 and 9.9 and 7.4
same,IC50,"rat α-thrombin; single replicates R1-R3, read-out: IC50, rat alpha thrombin inhibition",339 nM and 326 nM (2×)
same,Ki,"rat α-thrombin; single replicates R1-R3, read-out: Ki, rat alpha thrombin inhibition",188 nM (2×) and 181 nM (2×) and 180 nM (2×)
same,"TIC value of compound, 0 min, R1","[2]; rat liver microsomes, 0 min, replicate R1",21675652
same,"TIC value of compound, 0 min, R3","[2]; rat liver microsomes, 0 min, replicate R3",21375886
same,"TIC value of compound, 5 min, R1","[2]; rat liver microsomes, 5 min, replicate R1",16129690
same,"TIC value of compound, 5 min, R3","[2]; rat liver microsomes, 5 min, replicate R3",21185792
same,"TIC value of compound, 15 min, R1","[2]; rat liver microsomes, 15 min, replicate R1",14173175
same,"TIC value of compound, 15 min, R3","[2]; rat liver microsomes, 15 min, replicate R3",14991116
same,"TIC value of compound, 30 min, R1","[2]; rat liver microsomes, 30 min, replicate R1",10634659
same,"TIC value of compound, 30 min, R3","[2]; rat liver microsomes, 30 min, replicate R3",9842710
same,"TIC value of compound, 60 min, R1","[2]; rat liver microsomes, 60 min, replicate R1",4587256
same,"TIC value of compound, 60 min, R3","[2]; rat liver microsomes, 60 min, replicate R3",4284596
same,microsomal CLint,"[2]; CL (ul/min/mg protein), R1, RLM CL, replicate R1, unrounded",53.6 µL/min/mg
same,microsomal CLint,"[2]; CL (ul/min/mg protein), R2, RLM CL, replicate R2, unrounded",48.6 µL/min/mg
same,microsomal CLint,"[2]; CL (ul/min/mg protein), R3, RLM CL, replicate R3, unrounded",49.4 µL/min/mg
same,half-life,"[2]; Half Life (min), R1, RLM metabolic stability, replicate R1",25.9 min
same,half-life,"[2]; Half Life (min), R2, RLM metabolic stability, replicate R2",28.5 min
same,half-life,"[2]; Half Life (min), R3, RLM metabolic stability, replicate R3",28 min
same,half-life,"[2]; microsomes, Metabolic stability: Half life T1/2 (min), RLMs, mean and SD, three measurements",27 ± 1 min
same,microsomal CLint,"[2]; microsomes, Metabolic stability: RLM CL (ul/min/mg), RLMs, mean and SD, three measurements",51 ± 2 µL/min/mg
same,microsomal CLint,"[2]; microsomes, RLM CL, Average, average of R1-R3",50.6 µL/min/mg
same,microsomal CLint,"[2]; microsomes, RLM CL, R1, RLM CL, replicate R1, summary block",53.6 µL/min/mg
same,microsomal CLint,"[2]; microsomes, RLM CL, R2, RLM CL, replicate R2, summary block",48.6 µL/min/mg
same,microsomal CLint,"[2]; microsomes, RLM CL, R3, RLM CL, replicate R3, summary block",49.4 µL/min/mg
same,PAMPA permeability: % permeability,"[3]; 50 μM, 12–18 h, acceptor concentration relative to equilibrium",47 ± 3%
same,Papp at 50 μM,"[3]; PAMPA, pH 7.4",6.17 ×10⁻⁶ cm/s
same,Permeability% Average,"[3]; top well sample vs theoretical equilibrium sample (TIC), average of R1-R3",46.6%
same,Permeability%,"[3]; top well sample vs theoretical equilibrium sample (TIC), single replicates R1-R3",44.27% and 50.38% and 45.09%
same,Ki,"human α-thrombin; average of R1-R3, read-out: Ki Average, human alpha thrombin inhibition",608 nM
same,Slope normalized to DMSO (proteolytic substrate cleavage over time),human α-thrombin; peptide 1.02E-03 uM,102.8 and 91.6 and 92.3
same,Slope normalized to DMSO (proteolytic substrate cleavage over time),human α-thrombin; peptide 1.04E+00 uM,41.6 and 46.5 and 44.1
same,Slope normalized to DMSO (proteolytic substrate cleavage over time),human α-thrombin; peptide 1.27E-04 uM,104.6 and 98.9 and 94.9
same,Slope normalized to DMSO (proteolytic substrate cleavage over time),human α-thrombin; peptide 1.30E-01 uM,89.0 and 82.0 and 80.6
same,Slope normalized to DMSO (proteolytic substrate cleavage over time),human α-thrombin; peptide 1.59E-05 uM,106.7 and 95.1 and 97.4
same,Slope normalized to DMSO (proteolytic substrate cleavage over time),human α-thrombin; peptide 1.63E-02 uM,99.4 and 97.2 and 88.2
same,Slope normalized to DMSO (proteolytic substrate cleavage over time),human α-thrombin; peptide 2.03E-03 uM,103.4 and 94.4 and 88.8
same,Slope normalized to DMSO (proteolytic substrate cleavage over time),human α-thrombin; peptide 2.08E+00 uM,29.1 and 35.9 and 29.9
same,Slope normalized to DMSO (proteolytic substrate cleavage over time),human α-thrombin; peptide 2.54E-04 uM,103.3 and 99.1 and 91.3
same,Slope normalized to DMSO (proteolytic substrate cleavage over time),human α-thrombin; peptide 2.60E-01 uM,77.6 and 74.7 and 72.2
same,Slope normalized to DMSO (proteolytic substrate cleavage over time),human α-thrombin; peptide 3.18E-05 uM,106.8 and 94.8 and 91.3
same,Slope normalized to DMSO (proteolytic substrate cleavage over time),human α-thrombin; peptide 3.26E-02 uM,96.6 and 90.1 and 84.7
same,Slope normalized to DMSO (proteolytic substrate cleavage over time),human α-thrombin; peptide 4.07E-03 uM,86.5 and 95.5 and 89.4
same,Slope normalized to DMSO (proteolytic substrate cleavage over time),human α-thrombin; peptide 4.17E+00 uM,17.9 and 25.7 and 18.3
same,Slope normalized to DMSO (proteolytic substrate cleavage over time),human α-thrombin; peptide 5.21E-01 uM,60.8 and 59.2 and 52.4
same,Slope normalized to DMSO (proteolytic substrate cleavage over time),human α-thrombin; peptide 6.36E-05 uM,98.6 and 95.0 and 94.0
same,Slope normalized to DMSO (proteolytic substrate cleavage over time),human α-thrombin; peptide 6.51E-02 uM,91.4 and 89.0 and 83.1
same,IC50,"human α-thrombin; single replicates R1-R3, read-out: IC50, human alpha thrombin inhibition",700 nM and 850 nM and 816 nM
same,Ki,"human α-thrombin; single replicates R1-R3, read-out: Ki, human alpha thrombin inhibition",540 nM and 655 nM and 629 nM
